From PubChem BioAssay (NCI) come the findings set out here.

Test systems include MALME-3M melanoma; HCC-2998 colon; UO-31 renal; HOP-92 NSCLC; RPMI-8226 leukemia; UACC-62 melanoma; IGROV1 ovarian; MOLT-4 leukemia; COLO 205 colon; NCI/ADR-RES ovarian; CCRF-CEM leukemia.
Common to all, as to assay: growth of human tumour cells (NCI), 48 h

“And” between values parts separate entries of the source, which are not always exact repeats. Equal values may be shown once.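 Assay format: 96-well plates, 48-hour exposure. GI50 marks 50% less growth. The concentration for full growth arrest is given as TGI.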 Where only a bound is given, the exact number is not on record here.

On to `O=C(O)C(Cc1ccccc1)NCc1c(O)ccc2c(-c3ccccc3)cc(=O)oc12` (stereo not drawn), for which the TGI in the test on MALME-3M melanoma, in the test on HCC-2998 colon, in the test with UO-31 renal, in the test on HOP-92 NSCLC, with RPMI-8226 leukemia and with UACC-62 melanoma was greater than 100 µM throughout. Further, the TGI in the test with IGROV1 ovarian, in the test on MOLT-4 leukemia, with COLO 205 colon, in the test on NCI/ADR-RES ovarian and in the test on CCRF-CEM leukemia was greater than 100 µM each time.
Consider `O=C(Nc1ccccc1)N1CCN(C(=O)Nc2ccccc2)C1=S`, for which the TGI in the test on MALME-3M melanoma was greater than 100 µM; in the test with HCC-2998 colon it was greater than 100 µM; in the test with UO-31 renal, 60.7 µM; in the test with HOP-92 NSCLC, 63.5 µM; in the test on RPMI-8226 leukemia, greater than 100 µM; with IGROV1 ovarian it was greater than 100 µM. Besides, the TGI in the test with MOLT-4 leukemia, in the test with COLO 205 colon, with NCI/ADR-RES ovarian and with CCRF-CEM leukemia was greater than 100 µM throughout.
For `Clc1ccc2c(NCCCCCCNc3ccnc4cc(Cl)ccc34)ccnc2c1`, the TGI in the test on MALME-3M melanoma was found to be 32.6 µM; in the test with HCC-2998 colon, 3.32 µM; in the test on UO-31 renal it was 10.6 µM; in the test on HOP-92 NSCLC it was 5.8 µM; in the test with RPMI-8226 leukemia it was 6.53 µM; with UACC-62 melanoma, 8.66 µM. The TGI in the test on IGROV1 ovarian stood at 14.5 µM; with MOLT-4 leukemia, 8.09 µM; in the test with COLO 205 colon it was 4.62 µM; in the test on NCI/ADR-RES ovarian it was 27.9 µM; with CCRF-CEM leukemia, 7.53 µM.
Consider `COC(=O)c1sc(=O)sc1SCc1cccc(CSc2sc(=O)sc2C(=O)OC)c1`, for which the TGI in the test on MALME-3M melanoma was 49.5 µM; in the test with HCC-2998 colon, greater than 100 µM; in the test with UO-31 renal, greater than 100 µM; with HOP-92 NSCLC, 95.6 µM; with UACC-62 melanoma, greater than 100 µM; in the test with IGROV1 ovarian, greater than 100 µM. Besides, the TGI in the test on MOLT-4 leukemia, in the test with COLO 205 colon, in the test with NCI/ADR-RES ovarian and with CCRF-CEM leukemia was greater than 100 µM throughout.
For the molecule `C[n+]1cccc2ccc3cccnc3c21`, the TGI in the test with MALME-3M melanoma was 49.9 µM; in the test with HCC-2998 colon, greater than 100 µM; in the test on UO-31 renal, greater than 100 µM; in the test on HOP-92 NSCLC it was greater than 100 µM; with RPMI-8226 leukemia it was greater than 100 µM; with UACC-62 melanoma, greater than 100 µM. The TGI with IGROV1 ovarian was greater than 100 µM; in the test with MOLT-4 leukemia it was greater than 100 µM; with COLO 205 colon, 70 µM; in the test with NCI/ADR-RES ovarian, greater than 100 µM; in the test with CCRF-CEM leukemia, greater than 100 µM.
As for `COc1cccc2c1C(=O)c1c(O)c3c(c(O)c1C2=O)C[C@@](O)(C(C)=O)CC3OC1CC(OC2CC(N)C(O)C(C)O2)C(O)C(C)O1` (stereo partly drawn), the TGI was greater than 100 µM in the test on MALME-3M melanoma; greater than 100 µM with HCC-2998 colon; greater than 100 µM in the test with UO-31 renal; greater than 100 µM in the test with HOP-92 NSCLC; greater than 74.5 µM in the test on RPMI-8226 leukemia; greater than 100 µM with UACC-62 melanoma. The TGI was greater than 100 µM in the test with IGROV1 ovarian; 7.24 µM in the test on MOLT-4 leukemia; greater than 100 µM in the test with COLO 205 colon; greater than 100 µM with NCI/ADR-RES ovarian; 44 µM in the test on CCRF-CEM leukemia.
As to `COC(=O)C1OC(O[C@H]2CC[C@]3(C)[C@H]4CC=C5[C@@H]6CC(C)(C)CC[C@]6(C(=O)OC6OCC(O)C(O)C6OC6OC(C)C(OC7OCC(O)C(O)C7O)C(O)C6O)[C@H](O)C[C@@]5(C)[C@]4(C)CC[C@H]3C2(C)C)C(O)C(O)C1O` (stereo partly drawn), the GI50 in the test on MALME-3M melanoma is 4.78 µM and 11.2 µM; in the test with UACC-62 melanoma it was 2.89 µM and 7.04 µM; in the test on MOLT-4 leukemia it was > 42.6 µM and 14.2 µM; with CCRF-CEM leukemia it was > 68.4 µM and 13.5 µM. Besides, the TGI was 16.2 µM and 23.6 µM with MALME-3M melanoma; 6.71 µM and 3.44 µM with HCC-2998 colon; 3.54 µM and 5.18 µM in the test with UO-31 renal; 5.2 µM and 8.4 µM with HOP-92 NSCLC; > 100 µM and 21.3 µM in the test on RPMI-8226 leukemia; 8.55 µM and 21.7 µM in the test on UACC-62 melanoma. The TGI is > 80.4 µM and 26.8 µM in the test on IGROV1 ovarian; greater than 100 µM in the test with MOLT-4 leukemia; 3.02 µM and 3.31 µM with COLO 205 colon; 22.5 µM and 12.3 µM with NCI/ADR-RES ovarian; greater than 100 µM in the test with CCRF-CEM leukemia.
For `CC(=O)CC1(CBr)Nc2ccc([N+](=O)[O-])cc2NC1=O` (stereo not drawn), the TGI in the test with MALME-3M melanoma, in the test with HCC-2998 colon, in the test with UO-31 renal, with HOP-92 NSCLC, in the test on RPMI-8226 leukemia and in the test on UACC-62 melanoma was greater than 100 µM throughout. Further, the TGI with IGROV1 ovarian, in the test on MOLT-4 leukemia, in the test on COLO 205 colon, in the test on NCI/ADR-RES ovarian and in the test with CCRF-CEM leukemia was greater than 100 µM each time.
`CC(C)(C)C1CCC2c3c([nH]c4ccccc34)C3C(=O)N(c4ccc([N+](=O)[O-])cc4)C(=O)C3C2C1` (stereo not drawn): the TGI in the test on MALME-3M melanoma was 43.7 µM; in the test on HCC-2998 colon, 27.4 µM; in the test with HOP-92 NSCLC, 17.5 µM; with RPMI-8226 leukemia, greater than 100 µM; with UACC-62 melanoma it was 39 µM; in the test on IGROV1 ovarian, greater than 100 µM. Moreover, the TGI with MOLT-4 leukemia is 56.8 µM; with COLO 205 colon it was 21.1 µM; with NCI/ADR-RES ovarian, 41 µM; in the test with CCRF-CEM leukemia, greater than 100 µM.
As for `N#CCCC(C=O)(CCC#N)CCC#N`, the TGI in the test on MALME-3M melanoma, in the test on HCC-2998 colon, with UO-31 renal, in the test on HOP-92 NSCLC, with UACC-62 melanoma and with IGROV1 ovarian was greater than 100 µM throughout. For the same molecule, the TGI with COLO 205 colon, in the test on NCI/ADR-RES ovarian and with CCRF-CEM leukemia was greater than 100 µM in each case.
As for `COC(=O)c1c2c(cc3c1CC1(Cc4cc5c(c(C=O)c4C1)CCC5)C3)CCC2` (stereo not drawn), the TGI is 61.7 µM in the test on MALME-3M melanoma; 95.2 µM in the test with HCC-2998 colon; 71.8 µM with UO-31 renal; 60.7 µM in the test on HOP-92 NSCLC; greater than 100 µM in the test on RPMI-8226 leukemia; greater than 100 µM in the test with IGROV1 ovarian. The TGI in the test on MOLT-4 leukemia is 59.1 µM; with NCI/ADR-RES ovarian, greater than 100 µM; in the test with CCRF-CEM leukemia it was 56.7 µM.
In the case of `O=C1[C@@H]2[C@@H](CN3CN(c4ccccc4)N=C(c4ccccc4)[C@@]23c2ccccc2)C(=O)N1c1ccccc1`, the TGI with MALME-3M melanoma was 3.57 µM; with HCC-2998 colon, greater than 100 µM; with UO-31 renal, 3.29 µM; with HOP-92 NSCLC it was 3.86 µM; with RPMI-8226 leukemia it was 12.4 µM; in the test on UACC-62 melanoma it was 20.1 µM. The TGI is 29.5 µM with IGROV1 ovarian, greater than 100 µM in the test with MOLT-4 leukemia, 3.83 µM in the test on COLO 205 colon and 49.2 µM with NCI/ADR-RES ovarian.
